# Test results as given in PMC6211260 (Journal of Enzyme Inhibition and Medicinal Chemistry, 2018).
# Assays:
# [1] = target: T1, BRAF (Homo sapiens, UniProt P15056); test: In vitro kinase screening (Kinase HotSpot); format: biochemical; details: single dose of 10 µM
# T1 construct: purchased Reaction Biology Corp
# From the text: (§1) To investigate the biological target of compound, Reaction Biology Corp. Kinase HotSpotSM service was used adopting standard assay protocol.
# [2] = target: T2, JNK3 (Homo sapiens, UniProt P53779); test: In vitro kinase screening (Kinase HotSpot); format: biochemical; details: single dose of 10 µM
# T2 construct: purchased Reaction Biology Corp
# From the text: as §1
# [3] = target: T3, CDK2/cyclin E (Homo sapiens, UniProt P24941); test: In vitro kinase screening (Kinase HotSpot); format: biochemical; details: single dose of 10 µM
# T3 construct: purchased Reaction Biology Corp
# From the text: as §1
# [4] = target: T4, P38a/MAPK14 (Homo sapiens, UniProt Q16539); test: In vitro kinase screening (Kinase HotSpot); format: biochemical; details: single dose of 10 µM, P38a/MAPK14
# T4 construct: purchased Reaction Biology Corp
# From the text: as §1
# [5] = target: T5, ABL1 (T315I) (Homo sapiens, UniProt P00519, T315I); test: In vitro kinase screening (Kinase HotSpot); format: biochemical; details: single dose of 10 µM
# T5 construct: purchased Reaction Biology Corp
# From the text: as §1
# [6] = target: T6, IKKb/IKBKB (Homo sapiens, UniProt O14920); test: In vitro kinase screening (Kinase HotSpot); format: biochemical; details: single dose of 10 µM
# T6 construct: purchased Reaction Biology Corp
# T6 sequence (O14920 1-756): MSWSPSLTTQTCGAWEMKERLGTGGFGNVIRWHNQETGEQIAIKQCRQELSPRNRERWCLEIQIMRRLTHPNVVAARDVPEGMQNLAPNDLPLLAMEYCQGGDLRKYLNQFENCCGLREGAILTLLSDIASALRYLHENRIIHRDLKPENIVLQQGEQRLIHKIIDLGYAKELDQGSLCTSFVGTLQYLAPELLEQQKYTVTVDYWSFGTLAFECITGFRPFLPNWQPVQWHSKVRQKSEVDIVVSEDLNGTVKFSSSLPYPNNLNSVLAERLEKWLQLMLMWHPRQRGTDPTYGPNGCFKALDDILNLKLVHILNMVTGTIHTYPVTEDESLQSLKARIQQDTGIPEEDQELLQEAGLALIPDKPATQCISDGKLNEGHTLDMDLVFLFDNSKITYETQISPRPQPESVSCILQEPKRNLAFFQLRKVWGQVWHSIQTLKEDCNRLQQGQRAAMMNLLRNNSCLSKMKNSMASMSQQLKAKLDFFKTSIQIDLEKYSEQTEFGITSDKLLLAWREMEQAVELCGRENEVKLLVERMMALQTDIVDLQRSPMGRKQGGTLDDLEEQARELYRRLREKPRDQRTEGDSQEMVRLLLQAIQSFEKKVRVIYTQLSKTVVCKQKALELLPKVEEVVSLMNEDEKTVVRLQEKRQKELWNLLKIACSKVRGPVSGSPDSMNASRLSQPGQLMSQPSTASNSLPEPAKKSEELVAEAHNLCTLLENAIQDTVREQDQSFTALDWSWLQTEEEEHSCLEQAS
# From the text: as §1
# [7] = target: T7, EGFR (Homo sapiens, UniProt P00533); test: In vitro kinase screening (Kinase HotSpot); format: biochemical; details: single dose of 10 µM
# T7 construct: purchased Reaction Biology Corp
# From the text: as §1
# [8] = target: T8, JNK2 (Homo sapiens, UniProt P45984); test: In vitro kinase screening (Kinase HotSpot); format: biochemical; details: single dose of 10 µM
# T8 construct: purchased Reaction Biology Corp
# From the text: as §1
# [9] = target: T9, GSK3b (Homo sapiens, UniProt P49841); test: In vitro kinase screening (Kinase HotSpot); format: biochemical; details: single dose of 10 µM
# T9 construct: purchased Reaction Biology Corp
# From the text: as §1
# [10] = target: T10, ROS/ROS1 (Homo sapiens, UniProt P08922); test: In vitro kinase screening (Kinase HotSpot); format: biochemical; details: single dose of 10 µM
# T10 construct: purchased Reaction Biology Corp
# From the text: as §1
# [11] = target: T11, JNK1 (Homo sapiens, UniProt P45983); test: In vitro kinase screening (Kinase HotSpot); format: biochemical; details: single dose of 10 µM
# T11 construct: purchased Reaction Biology Corp
# From the text: as §1
# [12] = target: T12, BRAF (V600E) (Homo sapiens, UniProt P15056, V600E); test: In vitro kinase screening (Kinase HotSpot); format: biochemical; details: single dose of 10 µM, BRAF (V599E) in Table 6, BRAF (V600E) in text
# T12 construct: purchased Reaction Biology Corp
# From the text: as §1
# [13] = tested on: HT29 colon cancer cell line; test: NCI-60 single-dose screening; format: cell-based; details: 10 µM
# Description: (§2) Screening against the cancer cell lines was carried out at the National Cancer Institute (NCI, Bethesda, Maryland, USA) applying the standard protocol of the NCI[22].
# (§3) The final target compounds were submitted to the National Cancer Institute (NCI), Maryland, USA[23]. Thirty-one compounds were selected to be tested over 60 cell lines at single dose 10 µM.
# [14] = tested on: SR leukaemia cell line; test: NCI-60 single-dose screening; format: cell-based; details: 10 µM
# Description: as §2, §3
# [15] = tested on: NCI-60 cell line panel; test: NCI-60 single-dose (10 µM) antiproliferative screening, mean over panel; format: cell-based; details: single-dose 10 µM
# Description: as §2, §3
# [16] = tested on: PC-3 prostate cancer cell line; test: NCI five-dose testing; format: cell-based; details: Homo sapiens
# Description: as §2
# [17] = tested on: U251 CNS cancer cell line; test: NCI five-dose testing; format: cell-based; details: Homo sapiens
# Description: as §2
# [18] = tested on: K-562 leukaemia cell line; test: NCI five-dose testing; format: cell-based; details: Homo sapiens
# Description: as §2
# [19] = tested on: HOP-92 non-small cell lung cancer cell line; test: NCI five-dose testing; format: cell-based; details: Homo sapiens
# Description: as §2
# [20] = tested on: SK-MEL-5 melanoma cell line; test: NCI five-dose testing; format: cell-based; details: Homo sapiens
# Description: as §2
# [21] = tested on: HT-29 colon cancer cell line; test: NCI five-dose testing; format: cell-based; details: Homo sapiens
# Description: as §2
# [22] = tested on: OVCAR-4 ovarian cancer cell line; test: NCI five-dose testing; format: cell-based; details: Homo sapiens
# Description: as §2
# [23] = tested on: A498 renal cancer cell line; test: NCI five-dose testing; format: cell-based; details: Homo sapiens
# Description: as §2
# [24] = tested on: MDA-MB-468 breast cancer cell line; test: NCI five-dose testing; format: cell-based; details: Homo sapiens
# Description: as §2
# [25] = tested on: HCC-116 colon cancer cell line; test: NCI-60 single-dose screening; format: cell-based; details: read-out: per cent inhibition
# Description: as §2, §3
# [26] = tested on: Colo 205 colon cancer cell line; test: NCI-60 single-dose screening; format: cell-based; details: Homo sapiens, read-out: per cent inhibition
# Description: as §2, §3
# [27] = tested on: SF-295 CNS cancer cell line; test: NCI-60 single-dose screening; format: cell-based; details: Homo sapiens, read-out: per cent inhibition
# Description: as §2, §3
# [28] = tested on: prostate cancer cell lines; test: NCI five-dose testing, subpanel mean; format: cell-based; details: subpanel VIII: prostate cancer
# Description: as §2
# [29] = tested on: CNS cancer cell lines; test: NCI five-dose testing, subpanel mean; format: cell-based; details: subpanel IV: CNS cancer
# Description: as §2
# [30] = tested on: melanoma cell lines; test: NCI five-dose testing, subpanel mean; format: cell-based; details: subpanel V: melanoma
# Description: as §2
# [31] = tested on: Leukaemia cell lines; test: NCI five-dose testing, subpanel mean; format: cell-based; details: subpanel I: Leukaemia
# Description: as §2
# [32] = tested on: ovarian cancer cell lines; test: NCI five-dose testing, subpanel mean; format: cell-based; details: subpanel VI: ovarian cancer
# Description: as §2
# [33] = tested on: non-small cell lung cancer cell lines; test: NCI five-dose testing, subpanel mean; format: cell-based; details: subpanel II: non-small cell lung cancer
# Description: as §2
# [34] = tested on: renal cancer cell lines; test: NCI five-dose testing, subpanel mean; format: cell-based; details: subpanel VII: renal cancer
# Description: as §2
# [35] = tested on: colon cancer cell lines; test: NCI five-dose testing, subpanel mean; format: cell-based; details: subpanel III: colon cancer
# Description: as §2
# [36] = tested on: breast cancer cell lines; test: NCI five-dose testing, subpanel mean; format: cell-based; details: subpanel IX: breast cancer
# Description: as §2
# T4 sequence (Q16539 whole entry): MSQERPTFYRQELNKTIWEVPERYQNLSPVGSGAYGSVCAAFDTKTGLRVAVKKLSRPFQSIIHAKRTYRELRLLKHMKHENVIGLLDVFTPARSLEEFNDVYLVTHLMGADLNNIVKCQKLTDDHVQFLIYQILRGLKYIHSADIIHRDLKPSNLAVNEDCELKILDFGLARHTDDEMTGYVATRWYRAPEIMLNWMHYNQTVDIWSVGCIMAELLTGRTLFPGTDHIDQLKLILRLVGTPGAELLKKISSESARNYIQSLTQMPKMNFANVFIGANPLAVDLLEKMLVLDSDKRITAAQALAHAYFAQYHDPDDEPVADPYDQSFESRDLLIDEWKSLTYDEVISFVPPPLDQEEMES
# T8 sequence (P45984 whole entry): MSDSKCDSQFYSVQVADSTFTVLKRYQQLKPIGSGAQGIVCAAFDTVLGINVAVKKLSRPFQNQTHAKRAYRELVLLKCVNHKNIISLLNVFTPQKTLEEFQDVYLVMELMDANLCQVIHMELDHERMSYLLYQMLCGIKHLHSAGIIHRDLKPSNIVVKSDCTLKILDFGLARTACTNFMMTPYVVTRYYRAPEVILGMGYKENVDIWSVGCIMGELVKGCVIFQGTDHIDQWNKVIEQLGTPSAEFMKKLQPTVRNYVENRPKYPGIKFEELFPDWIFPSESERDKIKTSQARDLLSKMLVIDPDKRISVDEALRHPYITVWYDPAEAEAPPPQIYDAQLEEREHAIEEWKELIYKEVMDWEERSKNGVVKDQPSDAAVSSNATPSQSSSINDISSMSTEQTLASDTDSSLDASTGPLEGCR
# T11 sequence (P45983 whole entry): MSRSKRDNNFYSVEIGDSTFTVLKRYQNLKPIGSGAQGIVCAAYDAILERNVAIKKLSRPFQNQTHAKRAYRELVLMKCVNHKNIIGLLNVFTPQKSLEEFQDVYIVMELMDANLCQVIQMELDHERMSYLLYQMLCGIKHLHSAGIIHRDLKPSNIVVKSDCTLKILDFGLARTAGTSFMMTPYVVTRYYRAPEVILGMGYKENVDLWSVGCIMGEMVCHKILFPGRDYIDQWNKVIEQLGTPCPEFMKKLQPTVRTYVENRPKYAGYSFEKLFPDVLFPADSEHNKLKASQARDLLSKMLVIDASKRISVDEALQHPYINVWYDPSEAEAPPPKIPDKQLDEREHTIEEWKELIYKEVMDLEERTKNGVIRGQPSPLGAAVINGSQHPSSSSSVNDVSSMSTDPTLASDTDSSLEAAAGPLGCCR
# T10 sequence (P08922 28-2347): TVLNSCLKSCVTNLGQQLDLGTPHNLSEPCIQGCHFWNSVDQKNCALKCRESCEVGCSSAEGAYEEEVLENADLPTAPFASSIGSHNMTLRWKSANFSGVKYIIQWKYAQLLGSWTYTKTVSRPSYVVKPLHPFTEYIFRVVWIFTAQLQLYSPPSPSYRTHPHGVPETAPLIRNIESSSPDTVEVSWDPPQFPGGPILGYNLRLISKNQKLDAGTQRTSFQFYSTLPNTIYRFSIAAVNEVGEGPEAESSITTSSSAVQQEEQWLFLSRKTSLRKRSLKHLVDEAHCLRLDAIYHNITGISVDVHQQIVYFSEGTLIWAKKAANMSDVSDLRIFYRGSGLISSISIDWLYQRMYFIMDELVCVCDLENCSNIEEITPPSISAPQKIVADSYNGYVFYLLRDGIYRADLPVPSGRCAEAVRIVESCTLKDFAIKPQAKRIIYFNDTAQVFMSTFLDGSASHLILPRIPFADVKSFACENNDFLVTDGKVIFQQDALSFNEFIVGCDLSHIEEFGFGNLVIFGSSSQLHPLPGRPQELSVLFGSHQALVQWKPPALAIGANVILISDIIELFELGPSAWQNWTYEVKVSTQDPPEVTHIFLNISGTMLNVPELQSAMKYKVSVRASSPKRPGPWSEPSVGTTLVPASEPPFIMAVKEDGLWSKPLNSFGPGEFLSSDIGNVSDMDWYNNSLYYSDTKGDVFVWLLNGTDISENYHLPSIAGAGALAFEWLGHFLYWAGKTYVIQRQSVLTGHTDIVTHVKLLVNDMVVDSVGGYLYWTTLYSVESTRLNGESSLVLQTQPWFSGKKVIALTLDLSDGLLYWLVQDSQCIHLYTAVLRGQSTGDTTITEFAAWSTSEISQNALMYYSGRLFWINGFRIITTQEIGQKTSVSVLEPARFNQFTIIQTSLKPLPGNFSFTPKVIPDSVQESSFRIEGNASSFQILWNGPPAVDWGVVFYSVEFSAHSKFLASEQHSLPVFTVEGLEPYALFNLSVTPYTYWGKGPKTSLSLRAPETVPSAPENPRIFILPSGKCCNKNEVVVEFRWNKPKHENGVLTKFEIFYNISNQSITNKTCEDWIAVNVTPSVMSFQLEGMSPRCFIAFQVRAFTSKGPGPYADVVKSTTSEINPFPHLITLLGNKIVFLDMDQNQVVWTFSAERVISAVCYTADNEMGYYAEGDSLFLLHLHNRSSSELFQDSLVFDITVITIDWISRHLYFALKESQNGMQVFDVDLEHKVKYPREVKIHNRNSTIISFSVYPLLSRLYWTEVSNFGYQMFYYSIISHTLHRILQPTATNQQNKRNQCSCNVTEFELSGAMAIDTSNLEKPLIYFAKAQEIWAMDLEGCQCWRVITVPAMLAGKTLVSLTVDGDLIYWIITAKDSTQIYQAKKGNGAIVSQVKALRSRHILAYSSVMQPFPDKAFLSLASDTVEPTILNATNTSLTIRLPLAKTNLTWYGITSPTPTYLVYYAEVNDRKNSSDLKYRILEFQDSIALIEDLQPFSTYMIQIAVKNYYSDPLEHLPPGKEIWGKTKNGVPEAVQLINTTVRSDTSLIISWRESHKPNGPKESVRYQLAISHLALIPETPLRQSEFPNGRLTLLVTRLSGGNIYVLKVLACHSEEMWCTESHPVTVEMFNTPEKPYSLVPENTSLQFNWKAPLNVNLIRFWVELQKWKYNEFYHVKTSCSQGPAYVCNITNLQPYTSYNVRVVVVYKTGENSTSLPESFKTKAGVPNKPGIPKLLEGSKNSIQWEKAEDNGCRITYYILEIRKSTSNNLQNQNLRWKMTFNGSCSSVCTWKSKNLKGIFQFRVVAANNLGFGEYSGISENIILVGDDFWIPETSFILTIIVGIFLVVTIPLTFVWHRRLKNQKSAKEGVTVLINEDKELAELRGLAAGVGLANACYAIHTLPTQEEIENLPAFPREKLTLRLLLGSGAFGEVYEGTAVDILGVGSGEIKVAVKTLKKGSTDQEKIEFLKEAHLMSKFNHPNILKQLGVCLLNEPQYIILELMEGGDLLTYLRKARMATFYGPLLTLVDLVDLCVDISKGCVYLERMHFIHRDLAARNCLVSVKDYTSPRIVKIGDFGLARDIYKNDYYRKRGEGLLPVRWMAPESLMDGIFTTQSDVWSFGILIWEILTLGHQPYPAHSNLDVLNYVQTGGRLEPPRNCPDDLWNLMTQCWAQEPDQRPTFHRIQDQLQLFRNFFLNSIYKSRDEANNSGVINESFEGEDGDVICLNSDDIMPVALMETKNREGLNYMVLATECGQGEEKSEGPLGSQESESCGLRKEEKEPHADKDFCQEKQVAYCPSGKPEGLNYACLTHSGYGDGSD
# T12 sequence (P15056 whole entry V600E): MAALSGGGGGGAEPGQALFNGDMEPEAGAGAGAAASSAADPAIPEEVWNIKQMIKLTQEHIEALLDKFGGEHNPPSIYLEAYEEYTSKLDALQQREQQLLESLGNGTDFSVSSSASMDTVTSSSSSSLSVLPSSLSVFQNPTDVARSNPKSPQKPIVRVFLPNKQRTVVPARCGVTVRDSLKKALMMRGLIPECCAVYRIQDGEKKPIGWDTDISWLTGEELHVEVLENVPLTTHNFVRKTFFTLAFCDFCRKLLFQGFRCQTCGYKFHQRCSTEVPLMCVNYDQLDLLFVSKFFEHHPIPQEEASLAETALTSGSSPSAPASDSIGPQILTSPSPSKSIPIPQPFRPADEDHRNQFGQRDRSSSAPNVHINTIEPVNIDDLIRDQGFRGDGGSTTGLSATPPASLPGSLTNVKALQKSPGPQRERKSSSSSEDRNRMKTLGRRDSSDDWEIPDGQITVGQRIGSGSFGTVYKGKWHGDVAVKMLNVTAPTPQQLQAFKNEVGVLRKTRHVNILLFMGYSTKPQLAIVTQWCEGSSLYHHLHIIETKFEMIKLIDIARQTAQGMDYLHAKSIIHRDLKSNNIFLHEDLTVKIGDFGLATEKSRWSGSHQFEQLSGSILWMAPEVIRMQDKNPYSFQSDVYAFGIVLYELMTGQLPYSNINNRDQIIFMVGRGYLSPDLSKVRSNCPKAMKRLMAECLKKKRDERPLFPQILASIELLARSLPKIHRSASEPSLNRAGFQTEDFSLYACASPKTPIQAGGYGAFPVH
# T1 sequence (P15056 whole entry): as the sequence (P15056 whole entry V600E) above, with E600V counted along it
# T2 sequence (P53779 whole entry): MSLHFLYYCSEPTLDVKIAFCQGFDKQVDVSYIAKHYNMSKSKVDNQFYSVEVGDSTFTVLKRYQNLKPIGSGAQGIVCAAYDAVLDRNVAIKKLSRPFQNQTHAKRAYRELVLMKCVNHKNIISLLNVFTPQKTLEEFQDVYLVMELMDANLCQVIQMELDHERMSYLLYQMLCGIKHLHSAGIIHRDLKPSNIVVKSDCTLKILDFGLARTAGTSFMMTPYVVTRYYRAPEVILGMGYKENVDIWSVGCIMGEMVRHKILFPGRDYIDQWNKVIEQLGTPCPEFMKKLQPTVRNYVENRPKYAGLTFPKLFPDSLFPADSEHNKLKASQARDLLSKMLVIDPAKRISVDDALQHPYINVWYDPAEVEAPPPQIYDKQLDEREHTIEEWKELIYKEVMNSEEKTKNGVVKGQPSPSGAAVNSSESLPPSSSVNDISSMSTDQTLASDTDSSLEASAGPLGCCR
structure (smiles),measurement,setting,value
"COc1cccc(-c2nn(-c3ccccc3)cc2-c2ccnc(NCCCNS(=O)(=O)c3ccc(Cl)cc3)c2)c1 [Compound 2c, 4-Chloro-N-(3-((4-(3-(3-methoxyphenyl)-1-phenyl-1H-pyrazol-4-yl)pyridin-2-yl)amino)propyl) benzenesulfonamide]",Inhibition %,[1],20.87 ± 0.30%
same,Inhibition %,[2],24.23 ± 0.03%
same,Inhibition %,[3],9.80 ± 1.01%
same,Inhibition %,[4],65.73 ± 0.66%
same,Inhibition %,[5],4.53 ± 0.45%
same,Inhibition %,[6],7.79 ± 0.15%
same,Inhibition %,[7],9.20 ± 4.45%
same,Inhibition %,[8],59.68 ± 0.01%
same,Inhibition %,[9],49.31 ± 0.30%
same,Inhibition %,[10],3.40 ± 0.39%
same,Inhibition %,[11],69.19 ± 0.02%
same,Inhibition %,[12],44.20 ± 0.40%
same,per cent inhibition,[13],88.66%
same,per cent inhibition,[14],92.74%
"O=S(=O)(NCCCNc1cc(-c2cn(-c3ccccc3)nc2-c2cccc(O)c2)ccn1)c1ccc(Br)cc1 [Compound 2k, 4-Bromo-N-(3-((4-(3-(3-hydroxyphenyl)-1-phenyl-1H-pyrazol-4-yl)pyridin-2-yl)amino)propyl)benzenesulfonamide]",inhibition at 10 µM,[15]; 60-cancer cell line screening,90.6%
same,number of cell lines with more than 100% inhibition,[15]; NCI-60 panel,13
same,LC50 (lethal concentration 50),"[16]; PC-3, read-out: LD50 (lethal dose 50)",> 100 µM
same,IC50,"[16]; PC-3, read-out: IC50",2.11 µM
same,IC (TGI),"[16]; PC-3, read-out: TGI (total growth inhibition concentration)",7.8 µM
same,CC50,"[17]; U-251, read-out: LD50 (lethal dose 50)",19.9 µM
same,IC50,"[17]; U-251, U251, read-out: IC50",1.21 µM
same,IC (TGI),"[17]; U-251, U251, read-out: TGI (total growth inhibition concentration)",4.4 µM
same,CC50,"[18]; K562, read-out: LD50 (lethal dose 50)",> 100 µM
same,IC50,"[18]; K562, K-562",0.44 µM
same,IC (TGI),"[18]; K562, K-562, read-out: TGI (total growth inhibition concentration)",2.8 µM
same,IC50,[19]; HOP-92,1.83 µM
same,IC (TGI),"[19]; HOP-92, HOP-92, read-out: TGI (total growth inhibition concentration)",7.5 µM
same,LD50 (lethal dose 50),"[19]; HOP-92, read-out: LD50 (lethal dose 50)",> 100 µM
same,IC50,[20]; SK-MEL-5,1.27 µM
same,LC50 (lethal concentration 50),"[20]; SK-MEL-5, read-out: LD50 (lethal dose 50)",5.3 µM
same,IC (TGI),"[20]; SK-MEL-5, read-out: TGI (total growth inhibition concentration)",2.6 µM
same,CC50,"[21]; HT-29, read-out: LD50 (lethal dose 50)",7.1 µM
same,IC50,"[21]; HT-29, read-out: IC50",0.63 µM
same,IC (TGI),"[21]; HT-29, read-out: TGI (total growth inhibition concentration)",2.3 µM
same,IC50,[22]; OVCAR-4,1.66 µM
same,LC50 (lethal concentration 50),"[22]; OVCAR-4, read-out: LD50 (lethal dose 50)",> 100 µM
same,IC (TGI),"[22]; OVCAR-4, read-out: TGI (total growth inhibition concentration)",8.6 µM
same,IC50,[23]; A498,0.38 µM
same,LC50 (lethal concentration 50%),"[23]; A498, read-out: LD50 (lethal dose 50)",11.9 µM
same,IC (TGI),"[23]; A498, read-out: TGI (total growth inhibition concentration)",2.8 µM
same,IC50,[24]; MDA-MB-468,1.54 µM
same,CC50,"[24]; MDA-MB-468, read-out: LD50 (lethal dose 50)",> 100 µM
same,IC (TGI),"[24]; MDA-MB-468, read-out: TGI (total growth inhibition concentration)",5.6 µM
same,inhibition at 10 µM,[25],140%
same,inhibition at 10 µM,[26],168%
same,inhibition at 10 µM,[27],147%
same,IC50,[28],2.03 µM
same,IC50,[29],1.7 µM
same,IC50,[30],1.62 µM
same,IC50,[31],1.55 µM
same,IC50,[32],2.11 µM
same,IC50,[33],1.96 µM
same,IC50,[34],1.89 µM
same,IC50,[35],1.48 µM
same,IC50,[36],1.11 µM
